In patent US20250388605A1, “HETEROBIFUNCTIONAL COMPOUNDS AND METHODS OF TREATING DISEASE” (Halda Therapeutics OpCo, Inc., priority 2022, published 2025):

How the values were obtained:
[1] = tested on: T-Rex 293 cell line SC3 cells having increased expression of androgen receptor protein due to exposure to doxycycline; assay: Cellular growth inhibition, T-Rex 293 SC3 cells with doxycycline (increased androgen receptor expression), CellTiter-Glo; format: cell-based; conditions: T-Rex 293 SC3 cells with 10 ng/mL doxycycline (increased androgen receptor expression), 72 hours, CellTiter-Glo 2.0
Procedure: (§1) The following types of cells were prepared for this experiment: (i) a T-Rex 293 cell line having increased expression of androgen receptor protein due to exposure to doxycycline and (ii) a T-Rex 293 cell line lacking increased expression of androgen receptor protein. Ability of the test compounds to inhibit proliferation of the foregoing cell types was evaluated according to the procedures set forth below.
(§2) The doxycycline-inducible androgen receptor protein expressing cell line was established using the following protocol: T-Rex 293 cells were purchased from Invitrogen (Cat #R71007) and transfected using Lipofectamine 2000 with the wild-type androgen receptor protein sequence cloned into the pcDNA4/TO vector. Transfected cells were selected using 400 μg/mL Zeocin (Invitrogen Cat #R25001). Following selection, single clones were raised and maintained in Dulbecco's Modified Eagle Medium (DMEM) supplemented with 10% w/w Tetracycline-free fetal bovine serum (FBS) and 250 μg/mL Zeocin. Clones were analyzed for expression of androgen receptor protein in the presence and absence of 10 ng/mL doxycycline (Sigma Cat #D9891), and a single doxycycline-inducible clone (hereinafter “SC3”) was selected for use in downstream assays.
(§3) The SC3 cells were seeded on poly-D-lysine coated, black clear-bottom 384-well plates at 2500/well, in 25 μL Phenol Red Free Dulbecco's Modified Eagle Medium (DMEM) supplemented with 10% w/w charcoal-dextran treated fetal bovine serum (FBS) and 1% w/w pen-strep, with or without 10 ng/mL doxycycline. Pen-Strep is a commercially available mixture of penicillin G and streptomycin, which is used in mammalian cell culture media to prevent bacterial contamination. Phenol Red Free Dulbecco's Modified Eagle Medium (DMEM) supplemented with 10% w/w charcoal-dextran treated fetal bovine serum (FBS) and 1% w/w pen-strep, with or without 10 ng/mL doxycycline is herein referred to as Treatment Medium. Following seeding of cells in the plates, the plates were spun at 300×g for 30 seconds, then equilibrated to room temperature for 30 minutes, and then deposited in a humidified tissue culture incubator maintained at 37° C. with 5% CO2.
(§4) At 24 hours after seeding of the cells, dilutions of test compound were prepared in DMSO and dissolved in Treatment Medium, to achieve a final DMSO concentration of 0.5% w/w, thereby providing the Test Compound Solution. A 25 μL aliquot of the Test Compound Solution was added to cells in the well plates. An equal volume of a solution containing DMSO and Treatment Medium was used as a negative control. Following treatment of cells with Test Compound Solution or said equal volume of a solution containing DMSO and Treatment Medium, the plates were spun at 300×g for 30 seconds, and then left in an incubator for 72 hours.
(§5) At the end of the treatment duration, cell viability was quantified with CellTiter-Glo 2.0 reagent (Promega Cat #G9243). For this purpose, plates were equilibrated to room temperature for 30 minutes, and then 25 μL of CellTiter-Glo 2.0 reagent was added to cells in the plate wells. Plates were then agitated on a shaker for two minutes at 500 rpm and subsequently incubated at room temperature for 10 minutes. Following incubation, the plates were spun at 3000×g for 30 seconds, then sealed with an optical adhesive cover, and luminescence readings were measured with an EnVision Plate Reader.
(§6) Data was normalized using zero luminescence for baseline. A four-parameter non-linear regression curve fit was applied to dose-response data in GraphPad Prism data analysis software to determine the half-maximal growth inhibitory concentration (GI50) for each test compound.

[2] = tested on: T-Rex 293 cell line SC3 cells lacking increased expression of androgen receptor protein; assay: Cellular growth inhibition, T-Rex 293 SC3 cells without doxycycline (no increased androgen receptor expression), CellTiter-Glo; format: cell-based; conditions: T-Rex 293 SC3 cells not exposed to doxycycline (no increased androgen receptor expression), 72 hours
Procedure: as §1, §2, §3, §4, §5, §6

VCaP cells = assay: Cellular growth inhibition assay for VCaP cells, CellTiter-Glo; format: cell-based, human; conditions: 72 hours
Procedure: VCaP cells were purchased from American Type Cell Culture (ATCC Cat #CRL2876) and then seeded on poly-D-lysine coated, black clear-bottom 384-well plates at 5000/well in 25 μL Dulbecco's Modified Eagle Medium (DMEM) supplemented with 10% w/w Fetal bovine serum (FBS) and 1% w/w Pen-Strep. Pen-Strep is a commercially available mixture of penicillin G and streptomycin, which is used in mammalian cell culture media to prevent bacterial contamination. Dulbecco's Modified Eagle Medium (DMEM) supplemented with 10% w/w fetal bovine serum (FBS) and 1% w/w Pen-Strep is herein referred to as Treatment Medium. Following seeding of cells in the plates, the plates were spun at 300×g for 30 seconds, then equilibrated to room temperature for 30 minutes, and then deposited in a humidified tissue culture incubator maintained at 37° C. with 5% CO2.
as §4, §5, §6

Compound | GI50 [1] [nM] | GI50 [2] [nM] | GI50 (VCaP cells) [nM] | GI50 (VCaP cells; Homo sapiens) [nM]
Cn1cc(-c2cc(C(C)(C)O)ccc2Oc2ccc(N3CC4(CCN(c5cnc(C(=O)N[C@H]6C(C)(C)[C@H](Oc7ccc(C#N)c(Cl)c7)C6(C)C)cn5)CC4)C3)cc2)c2cc[nH]c2c1=O [Compound I-352] | < 500 | > 3000 | < 500 | –
CCS(=O)(=O)Nc1ccc(Oc2cccc(OCCCC3CCN(c4ncc(C(=O)N[C@H]5C(C)(C)[C@H](Oc6ccc(C#N)c(Cl)c6)C5(C)C)cn4)CC3)c2F)c(-c2cn(C)c(=O)c3[nH]ccc23)c1 [Compound I-155] | < 500 | > 3000 | – | < 500
CCS(=O)(=O)Nc1ccc(Oc2cccc(OCCC3CCN(c4ncc(C(=O)N[C@H]5C(C)(C)[C@H](Oc6ccc(C#N)c(Cl)c6)C5(C)C)cn4)CC3)c2)c(-c2cn(C)c(=O)c3[nH]ccc23)c1 [Compound I-26] | < 500 | < 500 | – | < 500
CCS(=O)(=O)Nc1ccc(Oc2cccc(OCCCOCCOC3CCN(c4ncc(C(=O)N[C@H]5C(C)(C)[C@H](Oc6ccc(C#N)c(Cl)c6)C5(C)C)cn4)CC3)c2)c(-c2cn(C)c(=O)c3[nH]ccc23)c1 [Compound I-14] | < 500 | 500 to 1500 | – | < 500
Cn1cc(-c2cc(NS(=O)(=O)C3CC3)ccc2Oc2cccc(CCCN3CCN(c4ncc(C(=O)N[C@H]5C(C)(C)[C@H](Oc6ccc(C#N)c(Cl)c6)C5(C)C)cn4)CC3)c2F)c2cc[nH]c2c1=O [Compound I-135] | < 500 | > 3000 | < 500 | –
CCS(=O)(=O)Nc1ccc(Oc2cccc(OCCN3CCN(CC4CCN(c5ncc(C(=O)N[C@H]6C(C)(C)[C@H](Oc7ccc(C#N)c(Cl)c7)C6(C)C)cn5)CC4)CC3)c2)c(-c2cn(C)c(=O)c3[nH]ccc23)c1 [Compound I-32] | < 500 | < 500 | – | < 500
CCS(=O)(=O)Nc1ccc(Oc2cccc(N(C)CCOC3CCN(c4ncc(C(=O)N[C@H]5C(C)(C)[C@H](Oc6ccc(C#N)c(Cl)c6)C5(C)C)cn4)CC3)c2)c(-c2cn(C)c(=O)c3[nH]ccc23)c1 [Compound I-113] | < 500 | < 500 | – | < 500
CCS(=O)(=O)Cc1ccc(Oc2cccc(CCOC3CCN(c4ncc(C(=O)N[C@H]5C(C)(C)[C@H](Oc6ccc(C#N)c(Cl)c6)C5(C)C)cn4)CC3)c2F)c(-c2cn(C)c(=O)c3[nH]ccc23)c1 [Compound I-160] | < 500 | < 500 | < 500 | –
CCS(=O)(=O)Nc1ccc(Oc2cccc(C(=O)N(C)CCOC3CCN(c4ncc(C(=O)N[C@H]5C(C)(C)[C@H](Oc6ccc(C#N)c(Cl)c6)C5(C)C)cn4)CC3)c2)c(-c2cn(C)c(=O)c3[nH]ccc23)c1 [Compound I-66, N-((1r, 3r)-3-(3-chloro-4-cyanophenoxy)-2,2,4,4-tetramethylcyclobutyl)-2-(4-(2-(3-(4-(ethylsulfonamido)-2-(6-methyl-7-oxo-6,7-dihydro-1H-pyrrolo[2,3-c]pyridin-4-yl)phenoxy)-N-methylbenzamido)ethoxy)piperidin-1-yl)pyrimidine-5-carboxamide] | < 500 | > 3000 | – | < 500
CCS(=O)(=O)Nc1ccc(Oc2cccc(OCCCOCCCOC3CCN(c4ncc(C(=O)N[C@H]5C(C)(C)[C@H](Oc6ccc(C#N)c(Cl)c6)C5(C)C)cn4)CC3)c2)c(-c2cn(C)c(=O)c3[nH]ccc23)c1 [Compound I-12] | < 500 | < 500 | – | < 500
CCS(=O)(=O)Cc1ccc(Oc2cccc(OCCCC3CCN(c4ncc(C(=O)N[C@H]5C(C)(C)[C@H](Oc6ccc(C#N)c(Cl)c6)C5(C)C)cn4)CC3)c2F)c(-c2cn(C)c(=O)c3[nH]ccc23)c1 [Compound I-168] | < 500 | > 3000 | – | < 500
CCS(=O)(=O)Cc1ccc(Oc2cccc(N3CC(N4CCN(c5ncc(C(=O)N[C@H]6C(C)(C)[C@H](Oc7ccc(C#N)c(Cl)c7)C6(C)C)cn5)CC4)C3)c2F)c(-c2cn(C)c(=O)c3[nH]ccc23)c1 [Compound I-174] | < 500 | > 3000 | – | < 500
CCS(=O)(=O)c1ccc(OCC(OCCOC2CCN(c3ncc(C(=O)N[C@H]4C(C)(C)[C@H](Oc5ccc(C#N)c(Cl)c5)C4(C)C)cn3)CC2)C2CC2)c(-c2cn(C)c(=O)c3[nH]ccc23)c1 (stereo partly drawn) [Compound I-177] | < 500 | < 500 | < 500 | –
CCS(=O)(=O)Nc1ccc(Oc2cccc(OCCCCOC3CCN(c4ncc(C(=O)N[C@H]5C(C)(C)[C@H](Oc6ccc(C#N)c(Cl)c6)C5(C)C)cn4)CC3)c2)c(-c2cn(C)c(=O)c3[nH]ccc23)c1 [Compound I-15] | < 500 | 500 to 1500 | – | < 500
Cn1cc(-c2cc(NS(C)(=O)=O)ccc2Oc2cccc(OCCOC3CCN(c4ncc(C(=O)N[C@H]5C(C)(C)[C@H](Oc6ccc(C#N)c(Cl)c6)C5(C)C)cn4)CC3)c2)c2cc[nH]c2c1=O [Compound I-50, N-((1r, 3r)-3-(3-chloro-4-cyanophenoxy)-2,2,4,4-tetramethylcyclobutyl)-2-(4-(2-(3-(2-(6-methyl-7-oxo-6,7-dihydro-1H-pyrrolo[2,3-c]pyridin-4-yl)-4-(methylsulfonamido)phenoxy)phenoxy)ethoxy)piperidin-1-yl)pyrimidine-5-carboxamide] | < 500 | < 500 | – | < 500
CCC(=O)N(C)c1ccc(Oc2cccc(OCCOC3CCN(c4ncc(C(=O)N[C@H]5C(C)(C)[C@H](Oc6ccc(C#N)c(Cl)c6)C5(C)C)cn4)CC3)c2)c(-c2cn(C)c(=O)c3[nH]ccc23)c1 [Compound I-60] | < 500 | > 3000 | – | < 500
CCS(=O)(=O)Nc1ccc(Oc2cccc(OCCCCC3CCN(c4ncc(C(=O)N[C@H]5C(C)(C)[C@H](Oc6ccc(C#N)c(Cl)c6)C5(C)C)cn4)CC3)c2)c(-c2cn(C)c(=O)c3[nH]ccc23)c1 [Compound I-28] | < 500 | 500 to 1500 | – | < 500
CCS(=O)(=O)Cc1ccc(Oc2cccc(CCCOC3CCN(c4ncc(C(=O)N[C@H]5C(C)(C)[C@H](Oc6ccc(C#N)c(Cl)c6)C5(C)C)cn4)CC3)c2F)c(-c2cn(C)c(=O)c3[nH]ccc23)c1 [Compound I-184] | < 500 | < 500 | – | < 500
CCS(=O)(=O)Nc1ccc(Oc2cccc(N(CCN(C)C3CCN(c4ncc(C(=O)N[C@H]5C(C)(C)[C@H](Oc6ccc(C#N)c(Cl)c6)C5(C)C)cn4)CC3)C(C)C)c2F)c(-c2cn(C)c(=O)c3[nH]ccc23)c1 [Compound I-183] | < 500 | < 500 | < 500 | –
